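48-hour exposure; five concentrations; linearly interpolated endpoints. Abbreviation: GI50, concentration required for 50% inhibition of growth. TGI: concentration producing complete growth inhibition.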
Tests used:
Assay in all cases: inhibition of tumour cell growth, NCI panel, 48 h
K-562 leukemia = tested on: K-562 leukemia
ACHN renal = tested on: ACHN renal
786-0 renal = tested on: 786-0 renal
UACC-257 melanoma = tested on: UACC-257 melanoma
OVCAR-5 ovarian = tested on: OVCAR-5 ovarian
SK-MEL-28 melanoma = tested on: SK-MEL-28 melanoma
MDA-MB-435 = tested on: MDA-MB-435
IGROV1 ovarian = tested on: IGROV1 ovarian
MALME-3M melanoma = tested on: MALME-3M melanoma
HT29 colon = tested on: HT29 colon
MCF7 breast = tested on: MCF7 breast
KM12 colon = tested on: KM12 colon
SK-MEL-5 melanoma = tested on: SK-MEL-5 melanoma
EKVX NSCLC = tested on: EKVX NSCLC
NCI-H23 lung = tested on: NCI-H23 lung
NCI-H460 lung = tested on: NCI-H460 lung
SF-268 CNS = tested on: SF-268 CNS
HOP-62 NSCLC = tested on: HOP-62 NSCLC
MOLT-4 leukemia = tested on: MOLT-4 leukemia
SW-620 colon = tested on: SW-620 colon
HCT-116 colon = tested on: HCT-116 colon
HS 578T breast = tested on: HS 578T breast
PC-3 prostate = tested on: PC-3 prostate
RXF 393 renal = tested on: RXF 393 renal
U251 CNS = tested on: U251 CNS
A498 renal = tested on: A498 renal
CAKI-1 renal = tested on: CAKI-1 renal
SNB-75 CNS = tested on: SNB-75 CNS
BT-549 breast = tested on: BT-549 breast
LOX IMVI melanoma = tested on: LOX IMVI melanoma
SK-OV-3 ovarian = tested on: SK-OV-3 ovarian
TK-10 renal = tested on: TK-10 renal
SNB-19 CNS = tested on: SNB-19 CNS
UACC-62 melanoma = tested on: UACC-62 melanoma
NCI-H226 lung = tested on: NCI-H226 lung
HCT-15 colon = tested on: HCT-15 colon
MDA-MB-231 breast = tested on: MDA-MB-231 breast
SF-295 CNS = tested on: SF-295 CNS
M14 melanoma = tested on: M14 melanoma
NCI/ADR-RES ovarian = tested on: NCI/ADR-RES ovarian
SN12C renal = tested on: SN12C renal
UO-31 renal = tested on: UO-31 renal
OVCAR-8 ovarian = tested on: OVCAR-8 ovarian
HL-60(TB) leukemia = tested on: HL-60(TB) leukemia
OVCAR-3 ovarian = tested on: OVCAR-3 ovarian
CCRF-CEM leukemia = tested on: CCRF-CEM leukemia
COLO 205 colon = tested on: COLO 205 colon
SK-MEL-2 melanoma = tested on: SK-MEL-2 melanoma
RPMI-8226 leukemia = tested on: RPMI-8226 leukemia
SF-539 CNS = tested on: SF-539 CNS
DU-145 prostate = tested on: DU-145 prostate
OVCAR-4 ovarian = tested on: OVCAR-4 ovarian
HOP-92 NSCLC = tested on: HOP-92 NSCLC
A549 NSCLC = tested on: A549 NSCLC
NCI-H522 lung = tested on: NCI-H522 lung
SR leukemia = tested on: SR leukemia

Cn1cc(NC(=O)c2cc(NC(=O)c3cc(NC=O)cn3C)cn2C)cc1C(=O)NCCC(=N)N
TGI (K-562 leukemia): > 100 µM
TGI (ACHN renal): > 100 µM
TGI (786-0 renal): > 100 µM
TGI (UACC-257 melanoma): > 100 µM
TGI (OVCAR-5 ovarian): > 100 µM
TGI (SK-MEL-28 melanoma): > 100 µM
TGI (MDA-MB-435): > 100 µM
TGI (IGROV1 ovarian): > 100 µM
TGI (MALME-3M melanoma): > 100 µM
TGI (HT29 colon): > 100 µM
TGI (MCF7 breast): > 100 µM
TGI (KM12 colon): > 100 µM
TGI (SK-MEL-5 melanoma): > 100 µM
TGI (EKVX NSCLC): > 100 µM
TGI (NCI-H23 lung): > 100 µM
TGI (NCI-H460 lung): > 100 µM
TGI (SF-268 CNS): > 100 µM
TGI (HOP-62 NSCLC): > 100 µM
TGI (MOLT-4 leukemia): > 100 µM
TGI (SW-620 colon): > 100 µM
TGI (HCT-116 colon): > 100 µM
TGI (HS 578T breast): > 100 µM
TGI (PC-3 prostate): > 100 µM
TGI (RXF 393 renal): > 100 µM
TGI (U251 CNS): > 100 µM
TGI (A498 renal): > 100 µM
TGI (CAKI-1 renal): > 100 µM
TGI (SNB-75 CNS): > 100 µM
TGI (BT-549 breast): > 100 µM
TGI (LOX IMVI melanoma): > 100 µM
TGI (SK-OV-3 ovarian): > 100 µM
TGI (TK-10 renal): > 100 µM
TGI (SNB-19 CNS): > 100 µM
TGI (UACC-62 melanoma): > 100 µM
TGI (NCI-H226 lung): > 100 µM
TGI (HCT-15 colon): > 100 µM
TGI (MDA-MB-231 breast): > 100 µM
TGI (SF-295 CNS): > 100 µM
TGI (M14 melanoma): > 100 µM
TGI (NCI/ADR-RES ovarian): > 100 µM
TGI (SN12C renal): > 100 µM
TGI (UO-31 renal): > 100 µM
TGI (OVCAR-8 ovarian): > 100 µM
TGI (HL-60(TB) leukemia): > 100 µM
TGI (OVCAR-3 ovarian): > 100 µM
TGI (CCRF-CEM leukemia): > 100 µM
TGI (COLO 205 colon): > 100 µM
TGI (SK-MEL-2 melanoma): > 100 µM
TGI (RPMI-8226 leukemia): > 100 µM
TGI (SF-539 CNS): > 100 µM
TGI (DU-145 prostate): > 100 µM

Cn1nc(-c2cccs2)cc1/N=C(\N)C(C)(C#N)Cc1ccccc1 (configuration not stated)
GI50 (K-562 leukemia): 33.3 µM
TGI (K-562 leukemia): > 100 µM
GI50 (ACHN renal): 20.7 µM
TGI (ACHN renal): 48.4 µM
GI50 (786-0 renal): 39.7 µM
TGI (786-0 renal): > 100 µM
GI50 (UACC-257 melanoma): 32 µM
TGI (UACC-257 melanoma): 71.8 µM
GI50 (OVCAR-5 ovarian): 31.6 µM
TGI (OVCAR-5 ovarian): 75.8 µM
GI50 (SK-MEL-28 melanoma): 70.3 µM
TGI (SK-MEL-28 melanoma): > 100 µM
GI50 (MDA-MB-435): 25.7 µM
TGI (MDA-MB-435): 62.2 µM
GI50 (IGROV1 ovarian): 54.2 µM
TGI (IGROV1 ovarian): > 100 µM
GI50 (MCF7 breast): 31.5 µM
TGI (MCF7 breast): > 100 µM
GI50 (OVCAR-4 ovarian): 28.1 µM
TGI (OVCAR-4 ovarian): > 100 µM
GI50 (KM12 colon): 29 µM
TGI (KM12 colon): 93.7 µM
GI50 (SK-MEL-5 melanoma): 18.4 µM
TGI (SK-MEL-5 melanoma): 37.4 µM
GI50 (EKVX NSCLC): 47.4 µM
TGI (EKVX NSCLC): > 100 µM
GI50 (NCI-H23 lung): 27.7 µM
TGI (NCI-H23 lung): 53.9 µM
GI50 (HOP-92 NSCLC): 32.7 µM
TGI (HOP-92 NSCLC): > 100 µM
GI50 (NCI-H460 lung): 26.7 µM
TGI (NCI-H460 lung): 80.7 µM
GI50 (SF-268 CNS): 36.9 µM
TGI (SF-268 CNS): > 100 µM
GI50 (HOP-62 NSCLC): 38.7 µM
TGI (HOP-62 NSCLC): > 100 µM
GI50 (MOLT-4 leukemia): 67.1 µM
TGI (MOLT-4 leukemia): > 100 µM
GI50 (SW-620 colon): 34.2 µM
TGI (SW-620 colon): > 100 µM
GI50 (HCT-116 colon): 27.2 µM
TGI (HCT-116 colon): > 100 µM
GI50 (HS 578T breast): 18.3 µM
TGI (HS 578T breast): 58.5 µM
GI50 (A549 NSCLC): 23.4 µM
TGI (A549 NSCLC): 57.1 µM
GI50 (PC-3 prostate): 32.4 µM
TGI (PC-3 prostate): 90.4 µM
GI50 (RXF 393 renal): 49.3 µM
TGI (RXF 393 renal): 90.3 µM
GI50 (NCI-H522 lung): 56.1 µM
TGI (NCI-H522 lung): > 100 µM
GI50 (U251 CNS): 21.9 µM
TGI (U251 CNS): 52.7 µM
GI50 (A498 renal): 32 µM
TGI (A498 renal): 64.7 µM
GI50 (CAKI-1 renal): 22.9 µM
TGI (CAKI-1 renal): 60.8 µM
GI50 (BT-549 breast): 35.4 µM
TGI (BT-549 breast): > 100 µM
GI50 (LOX IMVI melanoma): 23.3 µM
TGI (LOX IMVI melanoma): 53.3 µM
GI50 (SK-OV-3 ovarian): 44.8 µM
TGI (SK-OV-3 ovarian): > 100 µM
GI50 (TK-10 renal): 27.3 µM
TGI (TK-10 renal): 91.6 µM
GI50 (SNB-19 CNS): 62.7 µM
TGI (SNB-19 CNS): > 100 µM
GI50 (UACC-62 melanoma): 22.8 µM
TGI (UACC-62 melanoma): 49.6 µM
GI50 (NCI-H226 lung): 20.4 µM
TGI (NCI-H226 lung): 58.1 µM
GI50 (HCT-15 colon): 29.3 µM
TGI (HCT-15 colon): > 100 µM
GI50 (MDA-MB-231 breast): 16.3 µM
TGI (MDA-MB-231 breast): 39.4 µM
GI50 (SF-295 CNS): 26.9 µM
TGI (SF-295 CNS): 75.7 µM
GI50 (M14 melanoma): 29.9 µM
TGI (M14 melanoma): > 100 µM
GI50 (NCI/ADR-RES ovarian): 23.7 µM
TGI (NCI/ADR-RES ovarian): 49.5 µM
GI50 (SN12C renal): 24.8 µM
TGI (SN12C renal): 79.3 µM
GI50 (UO-31 renal): 44.1 µM
TGI (UO-31 renal): > 100 µM
GI50 (OVCAR-8 ovarian): 37.1 µM
TGI (OVCAR-8 ovarian): 98.7 µM
GI50 (HL-60(TB) leukemia): 26.5 µM
TGI (HL-60(TB) leukemia): 59.5 µM
GI50 (OVCAR-3 ovarian): 21.9 µM
TGI (OVCAR-3 ovarian): 58.3 µM
GI50 (CCRF-CEM leukemia): 46.4 µM
TGI (CCRF-CEM leukemia): > 100 µM
GI50 (SR leukemia): 45.2 µM
TGI (SR leukemia): > 100 µM
GI50 (COLO 205 colon): 39.9 µM
TGI (COLO 205 colon): > 100 µM
GI50 (SK-MEL-2 melanoma): 63.7 µM
TGI (SK-MEL-2 melanoma): > 100 µM
GI50 (RPMI-8226 leukemia): 15.5 µM
TGI (RPMI-8226 leukemia): 46.5 µM
GI50 (SF-539 CNS): 37.6 µM
TGI (SF-539 CNS): 77.1 µM
GI50 (DU-145 prostate): 47.6 µM
TGI (DU-145 prostate): > 100 µM
